Legend:
[1] = biological target: JAK2 (Homo sapiens, UniProt O60674); test: Kinase inhibition assay; format: biochemical
[2] = biological target: JAK3 (Homo sapiens, UniProt P52333); test: Kinase inhibition assay; format: biochemical
[3] = biological target: TYK2 (Homo sapiens, UniProt P29597); test: Kinase inhibition assay; format: biochemical
[4] = biological target: T1, HDAC6 (Homo sapiens, UniProt Q9UBN7); test: In vitro HDAC enzyme assay; format: biochemical
T1 sequence (Q9UBN7 1-1215): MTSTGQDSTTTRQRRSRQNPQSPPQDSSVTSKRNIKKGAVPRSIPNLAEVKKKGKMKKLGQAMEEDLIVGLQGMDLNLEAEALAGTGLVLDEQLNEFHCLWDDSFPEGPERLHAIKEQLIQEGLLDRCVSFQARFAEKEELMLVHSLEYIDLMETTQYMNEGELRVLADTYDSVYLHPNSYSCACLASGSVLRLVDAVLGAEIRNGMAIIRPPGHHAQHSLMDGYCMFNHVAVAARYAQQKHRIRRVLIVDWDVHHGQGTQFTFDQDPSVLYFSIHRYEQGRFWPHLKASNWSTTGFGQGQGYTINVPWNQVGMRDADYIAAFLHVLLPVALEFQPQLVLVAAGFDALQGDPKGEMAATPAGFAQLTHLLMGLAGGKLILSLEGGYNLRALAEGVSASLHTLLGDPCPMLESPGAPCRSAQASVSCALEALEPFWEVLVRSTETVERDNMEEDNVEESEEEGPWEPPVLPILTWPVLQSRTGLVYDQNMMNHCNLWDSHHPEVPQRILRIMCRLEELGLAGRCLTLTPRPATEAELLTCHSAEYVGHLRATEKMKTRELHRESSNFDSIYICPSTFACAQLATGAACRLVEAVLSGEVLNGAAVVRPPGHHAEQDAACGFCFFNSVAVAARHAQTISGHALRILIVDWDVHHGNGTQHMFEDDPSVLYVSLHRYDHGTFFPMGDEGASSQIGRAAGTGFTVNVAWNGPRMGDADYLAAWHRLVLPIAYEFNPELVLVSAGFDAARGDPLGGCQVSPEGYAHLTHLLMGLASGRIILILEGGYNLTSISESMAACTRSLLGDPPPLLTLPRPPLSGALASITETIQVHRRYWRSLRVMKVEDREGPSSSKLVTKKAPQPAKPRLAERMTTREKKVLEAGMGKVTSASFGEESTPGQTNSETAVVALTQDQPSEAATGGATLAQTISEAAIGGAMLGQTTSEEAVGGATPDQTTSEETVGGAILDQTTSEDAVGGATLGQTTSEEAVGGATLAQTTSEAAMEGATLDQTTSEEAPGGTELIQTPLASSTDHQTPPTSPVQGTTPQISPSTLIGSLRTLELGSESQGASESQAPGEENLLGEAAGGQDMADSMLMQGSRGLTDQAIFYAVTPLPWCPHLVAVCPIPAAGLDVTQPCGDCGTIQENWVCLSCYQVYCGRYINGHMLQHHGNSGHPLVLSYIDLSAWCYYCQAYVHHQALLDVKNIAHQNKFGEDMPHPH

[5] = biological target: HDAC1 (Homo sapiens, UniProt Q13547); test: In vitro HDAC enzyme assay; format: biochemical
[6] = biological target: HDAC3 (Homo sapiens, UniProt O15379); test: In vitro HDAC enzyme assay; format: biochemical
[7] = biological target: HDAC7 (Homo sapiens, UniProt Q8WUI4); test: In vitro HDAC enzyme assay; format: biochemical
[8] = tested on: MDA-MB-231; test: cells; format: cell-based; conditions: Homo sapiens, MDA-MB-231, read-out: Antiproliferative effect IC50, MDA-MB-231
[9] = tested on: RPMI-8226 cells; test: Apoptosis assay; format: cell-based, human; conditions: 1 μM, 48 h, flow cytometry
[10] = tested on: CCRF-CEM; test: NCI-60 screening, CCRF-CEM; format: cell-based; conditions: Homo sapiens, read-out: GI50, CCRF-CEM
[11] = tested on: HL60; test: NCI-60 screening, HL60; format: cell-based; conditions: Homo sapiens, HL-60, read-out: GI50, HL60
[12] = tested on: K-562; test: NCI-60 screening, K-562; format: cell-based; conditions: Homo sapiens, K562, read-out: GI50, K-562
[13] = tested on: MOLT-4; test: NCI-60 screening, MOLT-4; format: cell-based; conditions: Homo sapiens, MOLT-4, read-out: GI50, MOLT-4
[14] = tested on: RPMI-8226; test: NCI-60 screening, RPMI-8226; format: cell-based; conditions: Homo sapiens, RPMI-8226, read-out: GI50, RPMI-8226
[15] = tested on: NCI-H522; test: NCI-60 screening, NCI-H522; format: cell-based; conditions: Homo sapiens, NCI-H522, read-out: GI50, NCI-H522
[16] = tested on: SNB-19; test: NCI-60 screening, SNB-19; format: cell-based; conditions: Homo sapiens, SNB-19, read-out: GI50, SNB-19
[17] = tested on: SNB-75; test: NCI-60 screening, SNB-75; format: cell-based; conditions: Homo sapiens, SNB-75, read-out: GI50, SNB-75
[18] = tested on: LOX IMVI; test: NCI-60 screening, LOX IMVI; format: cell-based; conditions: Homo sapiens, read-out: GI50, LOX IMVI
[19] = tested on: MALME-3M; test: NCI-60 screening, MALME-3M; format: cell-based; conditions: Homo sapiens, read-out: GI50, MALME-3M
[20] = tested on: SK-MEL-2; test: NCI-60 screening, SK-MEL-2; format: cell-based; conditions: Homo sapiens, SK-MEL-2, read-out: GI50, SK-MEL-2
[21] = tested on: UACC-257; test: NCI-60 screening, UACC-257; format: cell-based; conditions: Homo sapiens, UACC-257, read-out: GI50, UACC-257
[22] = tested on: UACC-62; test: NCI-60 screening, UACC-62; format: cell-based; conditions: Homo sapiens, UACC-62, read-out: GI50, UACC-62
[23] = tested on: 786-0; test: NCI-60 screening, 786-0; format: cell-based; conditions: Homo sapiens, 786-0, read-out: GI50, 786-0
[24] = tested on: ACHN; test: NCI-60 screening, ACHN; format: cell-based; conditions: Homo sapiens, read-out: GI50, ACHN
[25] = tested on: HS 578 T; test: NCI-60 screening, HS 578 T; format: cell-based; conditions: Homo sapiens, read-out: GI50, HS 578 T

Sequence of HDAC1 (Q13547 whole entry): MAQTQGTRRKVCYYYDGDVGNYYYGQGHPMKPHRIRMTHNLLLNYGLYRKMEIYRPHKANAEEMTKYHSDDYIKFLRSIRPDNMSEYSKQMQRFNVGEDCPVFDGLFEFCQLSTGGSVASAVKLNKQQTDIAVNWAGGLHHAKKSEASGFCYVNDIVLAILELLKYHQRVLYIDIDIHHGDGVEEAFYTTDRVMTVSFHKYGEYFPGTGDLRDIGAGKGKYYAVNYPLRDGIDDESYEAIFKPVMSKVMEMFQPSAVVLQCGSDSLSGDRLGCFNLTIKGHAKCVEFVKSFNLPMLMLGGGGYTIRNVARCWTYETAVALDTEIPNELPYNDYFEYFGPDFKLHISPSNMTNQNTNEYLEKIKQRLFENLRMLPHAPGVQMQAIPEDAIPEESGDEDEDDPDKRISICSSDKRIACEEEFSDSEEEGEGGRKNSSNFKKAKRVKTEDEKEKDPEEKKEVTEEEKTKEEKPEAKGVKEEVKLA
Sequence of JAK3 (P52333 whole entry): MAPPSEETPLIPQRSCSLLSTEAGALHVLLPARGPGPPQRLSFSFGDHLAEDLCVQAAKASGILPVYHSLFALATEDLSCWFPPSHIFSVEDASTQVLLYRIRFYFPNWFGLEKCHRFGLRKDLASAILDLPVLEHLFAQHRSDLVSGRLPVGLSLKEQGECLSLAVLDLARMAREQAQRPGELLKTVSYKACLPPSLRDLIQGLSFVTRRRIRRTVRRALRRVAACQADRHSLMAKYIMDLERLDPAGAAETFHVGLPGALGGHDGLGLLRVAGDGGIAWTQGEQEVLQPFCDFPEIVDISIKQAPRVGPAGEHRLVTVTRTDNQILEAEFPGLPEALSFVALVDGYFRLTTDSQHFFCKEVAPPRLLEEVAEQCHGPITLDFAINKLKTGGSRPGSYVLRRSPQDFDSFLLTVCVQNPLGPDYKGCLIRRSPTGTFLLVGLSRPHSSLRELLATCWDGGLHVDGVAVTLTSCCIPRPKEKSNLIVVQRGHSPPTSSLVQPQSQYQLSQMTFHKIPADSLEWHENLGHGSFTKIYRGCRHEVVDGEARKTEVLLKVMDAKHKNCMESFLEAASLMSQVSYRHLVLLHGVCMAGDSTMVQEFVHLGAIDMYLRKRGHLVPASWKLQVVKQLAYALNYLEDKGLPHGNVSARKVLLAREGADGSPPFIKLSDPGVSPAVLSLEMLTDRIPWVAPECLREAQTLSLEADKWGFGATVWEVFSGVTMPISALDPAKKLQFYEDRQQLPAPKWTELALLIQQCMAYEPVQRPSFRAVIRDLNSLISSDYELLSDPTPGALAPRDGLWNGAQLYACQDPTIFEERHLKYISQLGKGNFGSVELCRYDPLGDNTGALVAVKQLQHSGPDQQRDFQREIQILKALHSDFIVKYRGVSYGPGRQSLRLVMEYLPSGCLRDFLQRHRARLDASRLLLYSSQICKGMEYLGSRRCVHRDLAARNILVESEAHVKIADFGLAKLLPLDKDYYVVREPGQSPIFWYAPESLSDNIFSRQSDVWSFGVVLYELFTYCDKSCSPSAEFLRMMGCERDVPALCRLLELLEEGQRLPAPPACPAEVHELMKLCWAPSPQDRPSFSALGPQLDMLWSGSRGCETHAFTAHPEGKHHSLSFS
Sequence of TYK2 (P29597 whole entry): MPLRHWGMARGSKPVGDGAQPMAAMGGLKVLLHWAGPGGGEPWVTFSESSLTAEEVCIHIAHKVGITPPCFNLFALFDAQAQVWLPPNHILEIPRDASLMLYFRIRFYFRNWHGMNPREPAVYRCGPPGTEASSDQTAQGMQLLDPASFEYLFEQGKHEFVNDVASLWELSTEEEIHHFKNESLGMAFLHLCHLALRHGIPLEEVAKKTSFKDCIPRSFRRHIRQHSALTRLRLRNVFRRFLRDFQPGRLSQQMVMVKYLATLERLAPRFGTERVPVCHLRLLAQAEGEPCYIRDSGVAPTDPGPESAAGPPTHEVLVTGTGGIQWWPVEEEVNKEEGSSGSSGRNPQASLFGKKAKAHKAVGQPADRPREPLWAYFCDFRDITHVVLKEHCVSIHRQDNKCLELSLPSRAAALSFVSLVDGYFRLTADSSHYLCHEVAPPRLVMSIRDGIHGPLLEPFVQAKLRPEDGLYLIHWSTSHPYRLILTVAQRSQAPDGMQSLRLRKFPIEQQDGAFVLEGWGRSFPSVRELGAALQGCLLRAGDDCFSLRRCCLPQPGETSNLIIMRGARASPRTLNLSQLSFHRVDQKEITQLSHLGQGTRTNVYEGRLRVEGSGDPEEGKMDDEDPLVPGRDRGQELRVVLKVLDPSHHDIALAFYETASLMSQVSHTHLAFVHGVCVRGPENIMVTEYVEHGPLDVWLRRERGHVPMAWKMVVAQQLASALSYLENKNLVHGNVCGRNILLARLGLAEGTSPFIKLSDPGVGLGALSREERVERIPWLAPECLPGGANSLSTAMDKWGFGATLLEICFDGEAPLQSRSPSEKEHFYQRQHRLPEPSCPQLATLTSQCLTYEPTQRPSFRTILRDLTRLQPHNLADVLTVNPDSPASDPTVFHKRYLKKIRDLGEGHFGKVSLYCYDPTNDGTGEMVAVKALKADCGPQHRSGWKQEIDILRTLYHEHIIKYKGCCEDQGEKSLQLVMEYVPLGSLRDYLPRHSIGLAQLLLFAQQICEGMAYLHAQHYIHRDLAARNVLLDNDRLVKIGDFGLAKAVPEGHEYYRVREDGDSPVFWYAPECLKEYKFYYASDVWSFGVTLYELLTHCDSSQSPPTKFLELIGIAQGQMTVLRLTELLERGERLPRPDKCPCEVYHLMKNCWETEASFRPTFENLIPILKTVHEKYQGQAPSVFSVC
Sequence of HDAC3 (O15379 whole entry): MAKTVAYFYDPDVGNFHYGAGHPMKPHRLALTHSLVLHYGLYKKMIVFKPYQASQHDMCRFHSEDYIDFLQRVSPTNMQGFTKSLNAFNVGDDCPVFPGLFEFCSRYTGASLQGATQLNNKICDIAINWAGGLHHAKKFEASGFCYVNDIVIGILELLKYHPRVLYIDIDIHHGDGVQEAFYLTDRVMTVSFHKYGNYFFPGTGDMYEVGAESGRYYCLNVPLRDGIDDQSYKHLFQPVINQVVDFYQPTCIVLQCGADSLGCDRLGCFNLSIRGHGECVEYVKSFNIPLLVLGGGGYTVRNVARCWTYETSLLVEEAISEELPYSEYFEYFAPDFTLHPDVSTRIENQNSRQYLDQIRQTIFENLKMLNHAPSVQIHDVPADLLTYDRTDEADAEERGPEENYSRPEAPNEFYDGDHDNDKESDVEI
Sequence of HDAC3 (Q9Y618 395-489 partner limits assumed): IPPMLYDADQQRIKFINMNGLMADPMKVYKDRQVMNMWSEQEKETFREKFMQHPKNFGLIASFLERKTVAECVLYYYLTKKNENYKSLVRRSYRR
Sequence of HDAC7 (Q8WUI4 whole entry): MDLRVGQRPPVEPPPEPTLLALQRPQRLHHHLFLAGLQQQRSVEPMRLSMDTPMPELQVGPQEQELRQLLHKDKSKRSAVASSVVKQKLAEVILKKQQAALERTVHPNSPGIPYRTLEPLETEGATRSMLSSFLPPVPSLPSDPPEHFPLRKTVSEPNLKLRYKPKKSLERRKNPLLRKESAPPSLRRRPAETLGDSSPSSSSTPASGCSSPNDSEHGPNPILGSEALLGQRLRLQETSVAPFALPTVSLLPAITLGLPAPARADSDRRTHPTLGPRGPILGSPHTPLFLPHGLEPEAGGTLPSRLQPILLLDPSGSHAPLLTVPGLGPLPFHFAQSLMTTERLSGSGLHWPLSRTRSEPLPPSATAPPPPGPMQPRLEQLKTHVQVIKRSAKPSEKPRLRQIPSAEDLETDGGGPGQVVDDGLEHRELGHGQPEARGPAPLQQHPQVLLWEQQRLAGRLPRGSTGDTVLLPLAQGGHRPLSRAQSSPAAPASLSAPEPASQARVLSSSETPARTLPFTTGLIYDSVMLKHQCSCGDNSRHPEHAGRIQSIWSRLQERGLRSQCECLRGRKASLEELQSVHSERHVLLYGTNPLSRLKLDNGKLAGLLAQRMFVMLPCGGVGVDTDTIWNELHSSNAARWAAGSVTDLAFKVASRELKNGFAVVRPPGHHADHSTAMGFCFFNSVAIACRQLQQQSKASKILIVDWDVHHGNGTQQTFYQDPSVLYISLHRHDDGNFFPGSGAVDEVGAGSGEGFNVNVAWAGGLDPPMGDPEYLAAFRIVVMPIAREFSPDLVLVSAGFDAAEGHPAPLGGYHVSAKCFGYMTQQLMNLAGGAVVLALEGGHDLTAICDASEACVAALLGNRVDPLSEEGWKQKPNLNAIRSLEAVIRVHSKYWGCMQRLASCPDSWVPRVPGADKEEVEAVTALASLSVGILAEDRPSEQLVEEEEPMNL

IC50 [1]: 0.278 ± 0.02 µM
IC50 [2]: > 10 µM
JAK3 IC50 ([2]; duplicate, SD <15%): very poor inhibitory activities
IC50 [3]: 0.86 ± 0.033 µM
TYK2 IC50 ([3]; duplicate, SD <15%): very poor inhibitory activities
IC50 [4]: 0.0043 ± 0.0001 µM
IC50 [5]: 0.0254 ± 0.0012 µM
Fold weaker on HDAC1 than HDAC6 ([5]; IC50 HDAC1 vs HDAC6): ~6 fold
IC50 [6]: 0.083 ± 0.0024 µM
Fold weaker on HDAC3 than HDAC6 ([6]; IC50 HDAC3 vs HDAC6): ~19 fold
IC50 [7]: 0.715 ± 0.0335 µM
IC50 [8]: 0.75 ± 0.03 µM
Structure (SMILES): O=C(NO)c1ccc(CNc2nc3cccc(-c4ccc5c(c4)OCO5)n3n2)cc1 [Compound 19, 4-(((5-(Benzo[d][1, 3]dioxol-5-yl)-[1,2, 4]triazolo[1,5-a]pyridin-2-yl)amino)methyl)-N-hydroxybenzamide]
Induction of RPMI-8226 cells apoptosis [9]: 85.3%
GI50 [10]: 0.31 µM
GI50 [11]: 0.44 µM
GI50 [12]: 0.32 µM
GI50 [13]: 0.35 µM
GI50 [14]: 0.1 µM
GI50 [15]: 0.1 µM
GI50 [16]: 1 µM
GI50 [17]: 0.35 µM
GI50 [18]: 0.69 µM
GI50 [19]: 0.25 µM
GI50 [20]: 0.25 µM
GI50 [21]: 0.36 µM
GI50 [22]: 0.42 µM
GI50 [23]: 1 µM
GI50 [24]: 0.55 µM
GI50 [25]: 0.14 µM
